Laboratory results from patent US9765092B2, “Tricyclic piperidine compounds” (ACTELION PHARMACEUTICALS LTD, priority 2013, dated 2017).

Target: human TPH1 (Homo sapiens (Human), UniProt P17752)
Experiment: Biochemical in vitro assay using fluorescence readout (TPH1 inhibition)
Details: full length human TPH1, 40 μM L-tryptophan, 15° C., 60 minutes, fluorescence at 540 nm; mean if determined several times

Sequence of human TPH1 (P17752 whole entry): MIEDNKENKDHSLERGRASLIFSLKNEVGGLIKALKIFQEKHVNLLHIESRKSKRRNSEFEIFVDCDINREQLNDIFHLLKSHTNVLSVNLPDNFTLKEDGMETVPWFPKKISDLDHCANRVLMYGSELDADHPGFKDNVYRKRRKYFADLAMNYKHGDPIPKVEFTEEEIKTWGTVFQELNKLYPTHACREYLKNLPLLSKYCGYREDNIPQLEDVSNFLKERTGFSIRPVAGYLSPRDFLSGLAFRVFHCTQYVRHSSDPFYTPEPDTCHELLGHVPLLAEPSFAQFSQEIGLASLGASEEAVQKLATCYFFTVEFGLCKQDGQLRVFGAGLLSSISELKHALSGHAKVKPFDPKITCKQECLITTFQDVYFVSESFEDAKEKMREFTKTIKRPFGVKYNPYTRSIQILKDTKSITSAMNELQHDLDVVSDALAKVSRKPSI

Structure (SMILES) | IC50 [nM]
Cc1nn2c3c(nc2s1)CCN(C(=O)COc1ccc(NS(C)(=O)=O)nc1Cl)C3c1cnc(N(C)C)s1 (centres unmarked) [Example 1.22.6, N-(6-Chloro-5-(2-(5-(2-(dimethylamino)thiazol-5-yl)-2-methyl-7,8-dihydro-[1,3,4]thia-diazolo[2′,3′:2,3]imidazo[4,5-c]pyridin-6(5H)-yl)-2-oxoethoxy)pyridin-2-yl)methane-sulfonamide] | 39
Cc1nn2c3c(nc2s1)CCN(C(=O)COc1ccc(N2CCOCC2)nc1Cl)C3c1csc(CO)c1 (centres unmarked) [Example 1.45.1, 2-((2-Chloro-6-morpholinopyridin-3-yl)oxy)-1-(5-(5-(hydroxymethyl)-thiophen-3-yl)-2-methyl-7,8-dihydro-[1,3,4]thiadiazolo[2′,3′:2,3]imidazo[4,5-c]pyridin-6(5H)-yl)ethanone] | 33

Same assay, conditions: human TPH1, fluorescence readout

Structure (SMILES) | IC50 [nM]
CCc1nc(C)ccc1OC1(C(=O)N2CCc3nc4sc(C)nn4c3C2c2ccc(C3CC3)cc2F)CC1 (centres unmarked) [Example 1.6.18, (5-(4-cyclopropyl-2-fluorophenyl)-2-methyl-7,8-dihydro-[1,3,4]thiadiazolo[2′,3′:2,3]imidazo[4,5-c]pyridin-6(5H)-yl)(1-((2-ethyl-6-methylpyridin-3-yl)oxy)cyclopropyl)methanone] | 186
Cc1nn2c3c(nc2s1)CCN(C(=O)COc1ccc(C(=O)NC2CC2)nc1C1CC1)C3c1ccc(Cl)cc1F (centres unmarked) [Example 1.4.55, 5-(2-(5-(4-chloro-2-fluorophenyl)-2-methyl-7,8-dihydro-[1,3,4]thiadiazolo[2′,3′:2,3]imidazo[4,5-c]pyridin-6(5H)-yl)-2-oxoethoxy)-N,6-dicyclopropylpicolinamide] | 9
O=C(COc1ccc(C(F)(F)F)nc1Cl)N1CCc2nc3sccn3c2C1c1ncc(C2CC2)cc1F (centres unmarked) [Example 6.7.1, 2-((2-chloro-6-(trifluoromethyl)pyridin-3-yl)oxy)-1-(5-(5-cyclopropyl-3-fluoropyridin-2-yl)-7,8-dihydrothiazolo-[2′,3′:2,3]imidazo[4,5-c]pyridin-6(5H)-yl)ethanone] | 11
Cc1nc(C)c(C2c3c(nc4sc(C)nn34)CCN2C(=O)COc2ccc(NS(C)(=O)=O)nc2Cl)s1 (centres unmarked) [Example 1.68.2, N-(6-chloro-5-(2-(5-(2,4-dimethylthiazol-5-yl)-2-methyl-7,8-dihydro-[1,3,4]thiadiazolo[2′,3′:2,3]imidazo[4,5-c]pyridin-6(5H)-yl)-2-oxoethoxy)pyridin-2-yl)methanesulfonamide] | 9
N#Cc1ccc(OCC(=O)N2CCc3nc4scnn4c3C2c2ccc(Cl)cc2F)c(Cl)c1 (centres unmarked) [Example 2.1.2, 3-chloro-4-(2-(5-(4-chloro-2-fluorophenyl)-7,8-dihydro-[1,3,4]thiadiazolo[2′,3′:2,3]imidazo[4,5-c]pyridin-6(5H)-yl)-2-oxoethoxy)benzonitrile] | 31
CNC(=O)c1ccc(OCC(=O)N2CCc3nc4sc(C)nn4c3C2c2ncc(Cl)cc2F)c(Cl)n1 (centres unmarked) [Example 1.33.5, 6-chloro-5-(2-(5-(5-chloro-3-fluoropyridin-2-yl)-2-methyl-7,8-dihydro-[1,3,4]thiadiazolo[2′,3′:2,3]imidazo[4,5-c]pyridin-6(5H)-yl)-2-oxoethoxy)-N-methylpicolinamide] | 6
Cc1nn2c3c(nc2s1)CCN(C(=O)C1(Oc2ccc(C(=O)N(C)C)nc2Cl)CC1)C3c1ccc(Cl)cc1F (centres unmarked) [Example 1.4.57, 6-chloro-5-(1-(5-(4-chloro-2-fluorophenyl)-2-methyl-5,6,7,8-tetrahydro-[1,3,4]thiadiazolo[2′,3′:2,3]imidazo[4,5-c]pyridine-6-carbonyl)cyclopropoxy)-N,N-dimethylpicolinamide] | 39
Cc1nn2c3c(nc2s1)CCN(C(=O)COc1ccc(C#N)nc1Cl)C3c1sc(C(=O)N(C)C)cc1F (centres unmarked) [Example 1.24.4, 5-(6-(2-((2-chloro-6-cyanopyridin-3-yl)oxy)acetyl)-2-methyl-5,6,7,8-tetrahydro-[1,3,4]thiadiazolo[2′,3′:2,3]imidazo[4,5-c]pyridin-5-yl)-4-fluoro-N,N-dimethylthiophene-2-carboxamide] | 46
Cc1nn2c3c(nc2s1)CCN(C(=O)COc1ccc(C(F)(F)F)nc1Cl)C3c1ccc(Cl)nc1F (centres unmarked) [Example 1.16.4, 1-(5-(6-chloro-2-fluoropyridin-3-yl)-2-methyl-7,8-dihydro-[1,3,4]thiadiazolo[2′,3′:2,3]imidazo[4,5-c]pyridin-6(5H)-yl)-2-((2-chloro-6-(trifluoromethyl)pyridin-3-yl)oxy)ethanone] | 27
Cc1ccc(C2c3c(nc4sc(C)nn34)CCN2C(=O)COc2ccc(-c3ncco3)nc2Cl)c(F)c1 (centres unmarked) [Example 1.53.1, 2-((2-chloro-6-(oxazol-2-yl)pyridin-3-yl)oxy)-1-(5-(2-fluoro-4-methylphenyl)-2-methyl-7,8-dihydro-[1,3,4]thiadiazolo[2′,3′:2,3]imidazo[4,5-c]pyridin-6(5H)-yl)ethanone] | 9
CCc1ncccc1OCC(=O)N1CCc2nc3sc(C)nn3c2C1c1ccc(Cl)cc1F (centres unmarked) [Example 1.4.5, 1-(5-(4-chloro-2-fluorophenyl)-2-methyl-7,8-dihydro-[1,3,4]thiadiazolo[2′,3′:2,3]imidazo[4,5-c]pyridin-6(5H)-yl)-2-((2-ethylpyridin-3-yl)oxy)ethanone] | 13
CNC(=O)c1cc(F)c(C2c3c(nc4sc(C)nn34)CCN2C(=O)COc2ccc(C(F)(F)F)cc2Cl)s1 (centres unmarked) [Example 1.25.2, 5-(6-(2-(2-chloro-4-(trifluoromethyl)phenoxy)acetyl)-2-methyl-5,6,7,8-tetrahydro-[1,3,4]thiadiazolo[2′,3′:2,3]imidazo[4,5-c]pyridin-5-yl)-4-fluoro-N-methylthiophene-2-carboxamide] | 10
CCc1nc(NS(C)(=O)=O)ccc1OCC(=O)N1CCc2nc3sc(C)nn3c2[C@@H]1c1ncc(C)cc1F [Example 1.31.16, (R)-N-(6-ethyl-5-(2-(5-(3-fluoro-5-methylpyridin-2-yl)-2-methyl-7,8-dihydro-[1,3,4]thiadiazolo[2′,3′:2,3]imidazo[4,5-c]pyridin-6(5H)-yl)-2-oxoethoxy)pyridin-2-yl)methanesulfonamide] | 18
Cc1nn2c3c(nc2s1)CCN(C(=O)COc1ccc(C#N)nc1Cl)C3c1ccc(C2CC2)cc1F (centres unmarked) [Example 1.6.23, 6-chloro-5-(2-(5-(4-cyclopropyl-2-fluorophenyl)-2-methyl-7,8-dihydro-[1,3,4]thiadiazolo[2′,3′:2,3]imidazo[4,5-c]pyridin-6(5H)-yl)-2-oxoethoxy)picolinonitrile] | 8
COc1ccc(C2c3c(nc4sc(C)nn34)CCN2C(=O)COc2ccc(NS(C)(=O)=O)nc2Cl)c(F)c1 (centres unmarked) [Example 1.3.4, N-(6-chloro-5-(2-(5-(2-fluoro-4-methoxyphenyl)-2-methyl-7,8-dihydro-[1,3,4]thiadiazolo[2′,3′:2,3]imidazo[4,5-c]pyridin-6(5H)-yl)-2-oxoethoxy)pyridin-2-yl)methanesulfonamide] | 8
Cc1nn2c3c(nc2s1)CCN(C(=O)COc1ccc(NS(C)(=O)=O)nc1Cl)C3c1cncs1 (centres unmarked) [Example 1.39.1, N-(6-chloro-5-(2-(2-methyl-5-(thiazol-5-yl)-7,8-dihydro-[1,3,4]thiadiazolo[2′,3′:2,3]imidazo[4,5-c]pyridin-6(5H)-yl)-2-oxoethoxy)pyridin-2-yl)methanesulfonamide] | 101
Cc1nn2c3c(nc2s1)CCN(C(=O)COc1ccc(N2CCOCC2)cc1Cl)C3c1cnc(C2CC2)nc1 (centres unmarked) [Example 1.10.2, 2-(2-chloro-4-morpholinophenoxy)-1-(5-(2-cyclopropyl-pyrimidin-5-yl)-2-methyl-7,8-dihydro-[1,3,4]thiadiazolo [2′,3′:2,3]imidazo[4,5-c]pyridin-6(5H)-yl)ethanone] | 18
CCc1ncccc1OCC(=O)N1CCc2nc3sccn3c2C1c1cnn(-c2ccccc2)c1 (centres unmarked) [Example 6.13.9, 2-((2-ethylpyridin-3-yl)oxy)-1-(5-(1-phenyl-1H-pyrazol-4-yl)-7,8-dihydrothiazolo[2′,3′:2,3]imidazo[4,5-c]pyridin-6(5H)-yl)ethanone] | 123
Cc1cc(Cl)ccc1OCC(=O)N1CCc2nc3sccn3c2C1c1cc2cccnc2s1 (centres unmarked) [Example 6.14.2, 2-(4-chloro-2-methylphenoxy)-1-(5-(thieno[2,3-b]-pyridin-2-yl)-7,8-dihydrothiazolo[2′,3′:2,3]imidazo[4,5-c]pyridin-6(5H)-yl)ethanone] | 39
COc1ccc(C2c3c(nc4sc(C)nn34)CCN2C(=O)COc2ccc3ccccc3c2)cc1OC (centres unmarked) [Example 1.1.1, 1-(5-(3,4-dimethoxyphenyl)-2-methyl-7,8-dihydro-[1,3,4]thiadiazolo[2′,3′:2,3]imidazo[4,5-c]pyridin-6(5H)-yl)-2-(naphthalen-2-yloxy)ethanone] | 10
CCc1cc(Cl)ccc1OCC(=O)N1CCc2nc3sccn3c2C1c1c(C)nn(C)c1C (centres unmarked) [Example 6.15.4, 2-(4-chloro-2-ethylphenoxy)-1-(5-(1,3,5-trimethyl-1H-pyrazol-4-yl)-7,8-dihydrothiazolo[2′,3′:2,3]imidazo[4,5-c]pyridin-6(5H)-yl)ethanone] | 102
O=C(COc1ccc(N2CCOCC2)cc1Cl)N1CC=C2N=C3SC=CN3C2[C@H]1c1ccc(Cl)cc1F (stereo partly drawn) [Example 6.4.2, 1-((5R)-5-(4-chloro-2-fluorophenyl)-4a,5-dihydro-thiazolo[2′,3′:2,3]imidazo[4,5-c]pyridin-6(7H)-yl)-2-(2-chloro-4-morpholinophenoxy)ethanone] | 4
O=C(COc1cccnc1Cl)N1CCc2nc3sccn3c2C1c1ccc(Cl)cc1F (centres unmarked) [Example 6.4.4, 1-(5-(4-chloro-2-fluorophenyl)-7,8-dihydrothiazolo-[2′,3′:2,3]imidazo[4,5-c]pyridin-6(5H)-yl)-2-((2-chloropyridin-3-yl)oxy)ethanone] | 13
COCCOc1ccc(C2c3c(nc4sc(C)nn34)CCN2C(=O)COc2ccc(NS(C)(=O)=O)nc2Cl)c(F)c1 (centres unmarked) [Example 1.83.2, N-(6-chloro-5-(2-(5-(2-fluoro-4-(2-methoxyethoxy)phenyl)-2-methyl-7,8-dihydro-[1,3,4]thiadiazolo[2′,3′:2,3]imidazo[4,5-c]pyridin-6(5H)-yl)-2-oxoethoxy)pyridin-2-yl)methanesulfonamide] | 18
